Measured values from US20220202912A1, “Polypeptides in Preparation of Drugs for Treatment or Prevention of Rheumatoid Arthritis” (priority 2011, published 2022).
Several values for one entry are separate records, joined by “and”; a condition that tells them apart may be missing. Equal entries are not always repeated. Where no end group is shown, it is not given here.

Columns and labels:
[1] = test system: macrophages (PMA-induced U937 cells); experiment: Western blot of protein expression in macrophages (PMA-induced U937 cells); type: cell-based, human
Method: 3.1 U937 cells are added to a 6-well plate (1.5×10^5 cells/mL), PMA (25 ng/mL) is used for induction for 48 h, and the cells adhere and differentiate into macrophages. Positive drug Adalimumab (25 μg/mL, 50 μg/mL, 100 μg/mL, 200 μg/mL, 400 μg/mL), Avastin (25 μg/mL, 50 μg/mL) are added, the final concentrations of mPEG-SC20k-HM-3 are 2.25, 4.5, 9.0, 13.5, 18.0, 36 μmol/L, and isovolumetric PBS is added to the blank group and the model group. The cells are incubated in a CO2 incubator at 37° C. for 24 or 48 h. Rat synovial cells are induced with LPS for 24 h and then mPEG-SC20k-HM-3 is administrated to final concentrations of 2.25, 4.5, 9.0, 13.5, 18.0 μmol/L, and the cells are incubated in a CO2 incubator at 37° C. for 48 h.
3.3 A protein extract solution is added at 20 μL/1×10^5 cells, and the cells are pipetted and dispersed, and stand at 4° C. for 30 min to lyse the cells.
3.4 1/4 volume of 5×protein loading buffer is added, and boiling water bath is performed for 5-10 min.
3.5 20 μL of protein sample is taken and 10% SDS-PAGE electrophoresis is performed.
3.6 The protein on the gel is transferred to the PVDF membrane by using a wetting transfer method with a constant current of 100 mA for 1-2.5 h.
3.7 The PVDF membrane is blocked with a blocking solution at room temperature for 2 h.
3.8 The membrane is washed for 3 times with PBST, 5 min each time. A primary antibody is added and the membrane stands at 4° C. overnight or is incubated at 37° C. for 2 h.
3.9 The membrane is washed for 3 times with PBST, 5 min each time. A secondary antibody is added and the membrane is incubated at room temperature for more than 2 h.
3.10 The membrane is exposed in a gel imager using an ECL detection kit.

TNF-α = experiment: in vivo imaging of TNF-α expression, carrageenan-induced TNF-luc mice; set-up: species or system BALB/c transgenic TNF-luc mice; settings: Adalimumab 8 mg/kg, mPEG-SC20k-HM-3 20 mg/kg sc
Method: At 8 time points, hour 0, hour 2, hour 4, hour 8, hour 12, hour 24, hour 48 and hour 72 after modeling, fluorescein is injected intraperitoneally into each group of mice. After the mice are lightly anesthetized with ether, the mice are fixed within 5-20 min and put into an in vivo imager, the imager is covered with an instrument lid, on-fluro and om-photo names in the desktop imaging interface of the computer are clicked, and the expose button is clicked to complete the fluorescence and white light photos of mice in vivo imaging. The specific imaging principle, operation steps, image processing and output are the same as those in the previous embodiment.
In vivo imaging results of mice are processed with Carestream Molecular Imaging Software 5.3, and the luminous area is used as the determination of results. The fluorescence areas of the groups after optimization are compared.
(1) Imaging principle: Fluorescein substrate is injected intraperitoneally, and binds to luciferase carried on TNF-α protein to catalyze luminescence. Through the Luciferase fluorescent reporter group on TNF, the change of the fluorescence area in mice is observed, and the expression of TNF-α is evaluated, so as to evaluate the impact of mPEG-SC20k-HM-3 on the expression of TNF-α.
(2) Operation steps: Start the Carestreama in vivo imager, open the MI software, click the Capture button, and set photographing conditions. In the on-flour fluorescence mode, set the parameters X Binning. 2 pixels, Y Binning. 2 pixels; Illumination Source: Multi-wavelength; f-stop: 2.50; field of view (FOV) (mm): 120; focal plane (mm): Tray. Excitation filter: 430 nm, emission filter: 535 nm; exposure time: 30s. Click the Expose button to photograph fluorescence. Under the om-photo name, set the parameters X Binning. 0 pixels, Y Binning. 0 pixels; Illumination Source: None; f-stop: 2.50; FOV (mm): 120; focal plane (mm): Tray. Excitation filter: 0 nm, emission filter: 0 nm; exposure time: 0.175 s. Click the Expose button to photograph white light.
(3) Image processing and output: Analyze and adjust photos of fluorescence function imaging and white light structure imaging to the best, and the FOV is consistent. Click Window→Tie, Display→Invert, Image Display→overlay→Transparency for image stacking. In the image output process, in a navigation panel, click Annotation→Width/Heigh→Scale Analysis Image for setting, click Add Annotation Bar for adding a title, click Add Intensity Scale for adding a ruler, and set Horizontal, Size, Style, Number of Significant Dig, and Horizontal/Vertical Length. Output a picture in Tiff format.

[2] = with the increase of the dosage

Substance | effect on integrin pathway angiogenesis [1] | Fluorescence intensity (in vivo imaging) (TNF-α; 0 h) | Fluorescence intensity (in vivo imaging) (TNF-α; 2 h) | Fluorescence intensity (in vivo imaging) (TNF-α; 4 h) | Fluorescence intensity (in vivo imaging) (TNF-α; 8 h) | Fluorescence intensity (in vivo imaging) (TNF-α; 12 h) | Fluorescence intensity (in vivo imaging) (TNF-α; 24 h) | Fluorescence intensity (in vivo imaging) (TNF-α; 48 h) | Fluorescence intensity (in vivo imaging) (TNF-α; 72 h) | dose with the best inhibitory effect on the expression of Integrin α5, Integrin β1, VEGFR2, HIF-1β, IL-6 proteins [1] [µM] | dose with the best inhibitory effect on the expression of TNFR1 protein [1] [µM] | dose with the best inhibitory effect on the expression of TNFR2, NF-κB and TNF-α proteins [1] [µM] | expression of HIF-1β and IL-6 protein in macrophages [1, 2] | expression of NF-κB protein factors in nuclei [1, 2] | expression of TNFR1 and TNFR2 protein factors in macrophages [1, 2] | expression of integrin α5, Integrin β1 and VEGFR2 proteins in macrophages [1, 2]
Adalimumab [reference compound] | no inhibitory effect | 18.048 ± 4.770 ×10^5 | 18.480 ± 4.887 ×10^5 | 20.209 ± 2.261 ×10^5 | 25.70±2.67 ×10^5 and 25.703 ± 2.668 ×10^5 | 22.40±5.06 ×10^5 and 22.396 ± 5.065 ×10^5 | 13.89±8.53 ×10^5 and 13.891 ± 0.853 ×10^5 | 14.76±3.58 ×10^5 and 14.765 ± 3.580 ×10^5 | 19.87±3.92 ×10^5 and 19.868 ± 3.924 ×10^5 | – | – | – | – | – | – | –
mPEG-SC20k-Ile-Val-Arg-Arg-Ala-Asp-Arg-Ala-Ala-Val-Pro-Gly-Gly-Gly-Gly-Arg-Gly-Asp ({mPEG‑SC 20k}-IVRRADRAAVPGGGGRGD) [polypeptide III, No. 3] | – | 10.851 ± 3.014 ×10^5 | 13.880 ± 5.266 ×10^5 | 11.926 ± 2.119 ×10^5 | 19.37±3.41 ×10^5 and 19.367 ± 3.408 ×10^5 | 18.65±9.09 ×10^5 and 18.653 ± 9.093 ×10^5 | 12.65±2.39 ×10^5 and 12.654 ± 2.390 ×10^5 | 14.37±6.24 ×10^5 and 14.037 ± 6.238 ×10^5 | 13.40±1.17 ×10^5 and 13.402 ± 1.171 ×10^5 | 13.5 | 18 | 4.5 | down-regulated | down-regulated | down-regulated | down-regulated
